This passage reports Kd and IC50 results from patent publication US20240287138A1, “CYCLIC PEPTIDES FOR INHIBITING TNF RECEPTOR 1 ACTIVITY” (Merck Sharp & Dohme LLC, priority 2023, published 2024).

Where two headings read alike, the source gives them in different places. Numbered stars: 1 amine (or outer) side, 2 acyl side, 3 side chain; on linkers, the order of the positions; unused ones are H or OH. Bridge positions count the residues as written; N and C are the ends. Square brackets hold non-standard residues; d marks the D form. Peptide text beside a SMILES is read from it. * marks the point of attachment. Trp(βS-Me,7-OMe) = COc1cccc2c([C@H](C)[C@H](N)C(=O)O)c[nH]c12; Ala(1-bicyclo(1.1.1)pentyl) = N[C@@H](CC12CC(C1)C2)C(=O)O; Trp(7-Br) = N[C@@H](Cc1c[nH]c2c(Br)cccc12)C(=O)O; Trp(7-Cl) = N[C@@H](Cc1c[nH]c2c(Cl)cccc12)C(=O)O; Phe(4-CONH2) = NC(=O)c1ccc(C[C@H](N)C(=O)O)cc1; Phe(4-COOH) = N[C@@H](Cc1ccc(C(=O)O)cc1)C(=O)O; Trp(7-aza) = N[C@@H](Cc1c[nH]c2ncccc12)C(=O)O; Pip(5R-OH) = O=C(O)[C@@H]1CC[C@@H](O)CN1; X1 = O=C([C@@H]1CC[C@H](N[*:1])C1)[*:2]; Pip(4-aza) = O=C(O)[C@@H]1CNCCN1; hArg = N=C(N)NCCCC[C@H](N)C(=O)O; 4Pal = N[C@@H](Cc1ccncc1)C(=O)O; NMeE = CN[C@@H](CCC(=O)O)C(=O)O; dHyp = O=C(O)[C@H]1C[C@H](O)CN1; αMeS = C[C@](N)(CO)C(=O)O; Carboxymethyl = O=C(O)C*; Nle = CCCC[C@H](N)C(=O)O; Nme = COCCNCC(=O)O; Sar = CNCC(=O)O

Assay [1] concerns the target T1, human TNFR1 extracellular domain (ECD) protein (Homo sapiens, UniProt P19438).
T1 construct: HRV 3C protease cleavage site (C); 6His (C, cleaved yes); made in house; host or cells: Sf21 insect cells (baculovirus), secreted
T1 sequence (P19438 30-211): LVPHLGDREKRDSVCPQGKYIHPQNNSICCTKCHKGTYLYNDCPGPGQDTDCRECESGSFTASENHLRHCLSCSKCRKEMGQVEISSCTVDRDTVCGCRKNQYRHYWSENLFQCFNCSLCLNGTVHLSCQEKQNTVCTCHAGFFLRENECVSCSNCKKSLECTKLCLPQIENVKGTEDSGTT
Put plainly: SPR binding affinity to captured human TNFR1 ECD. The protocol: (§1) B. Procedure for Binding Affinity and Selectivity measured by SPR
(§2) Affinity and selectivity for hTNFR1 and TNFR2 was determined using SPR. Human TNFR1 or TNFR2 genes (extracellular domain only) were synthesized with a C-terminal Avi-tag, HRV 3C protease cleavage site followed by a 6His-tag for affinity purification. The final gene product was cloned into pBAC™-1 vector (Millipore Sigma) for expression testing in insect cells. Constructs were transfected into Sf21 cells for baculovirus generation followed by protein expression analysis in Sf21 and Tni cell lines. Large scale expression in Sf21 cells was performed using baculovirus infected insect cells (BIICs) infected at a MOI=2.0 grown for 72 h. Target proteins secreted into the media were harvested via centrifugation and concentrated using diafiltration. TNFR was purified by immobilized metal ion affinity chromatography (IMAC) using a Ni-Sepharose HisTrap™ column (Cytiva™). Isolated TNFR had His tag removed using HRV 3C protease followed by additional purification using Ni-NTA chromatography. Biotinylation was performed on Ni-NTA flow-through fractions concentrated to 45 μM and treated with BirA ligase (1:100, μg/μg ratio) in 50 mM Tris pH 7.5, 150 mM NaCl, 50 μM biotin, 10 mM magnesium acetate, 10 mM ATP at 4° C. for 20 h. Final purification of biotin-TNFR and buffer exchange into 20 mM HEPES pH 7.5, 150 mM NaCl was performed using a HiLoad® Superdex® 200 26/60 column (Cytiva™). Highly purified protein was aliquoted and stored at −80° C.
(§3) The SPR assay uses a Cytiva™ 8K or 8K+ biosensor instrument to measure the kinetics of peptide analytes binding to captured human TNFR1 extracellular domain (ECD) protein; peptide analytes are also evaluated for any off-target binding to human TNFR2 ECD protein in parallel. Recombinant human TNFR1 ECD and human TNFR2 ECD proteins, biotinylated via engineered C-terminal avi-tags, are immobilized to a regenerable streptavidin biosensor chip surface (Cytiva™ Biotin CAPture kit, Series S; cat. #28920234). Peptide analytes binding to immobilized human TNFR1 ECD protein and their subsequent dissociation are conducted in a buffer of 10 mM HEPES pH 7.4, 150 mM NaCl, 3 mM EDTA, 0.05% P20,2% DMSO under laminar flow conditions and measured in response units (RU), which are directly proportional to the accumulated mass on the surface of the biosensor chip; the biosensor chip surface is regenerated via Cytiva™ proprietary methods between the evaluation of each peptide analyte. […] The SPR assay determines the association and dissociation rate constants, kon and koff, for each peptide analyte and, from these values, calculates the binding affinity, […] reported in Table 2.

Assay [2] deals with T2, TNFα-induced NF-κB signal transduction pathway (TNFR1 signaling) in THP-1 cells (Homo sapiens, UniProt P19438).
T2 sequence (P19438 30-455): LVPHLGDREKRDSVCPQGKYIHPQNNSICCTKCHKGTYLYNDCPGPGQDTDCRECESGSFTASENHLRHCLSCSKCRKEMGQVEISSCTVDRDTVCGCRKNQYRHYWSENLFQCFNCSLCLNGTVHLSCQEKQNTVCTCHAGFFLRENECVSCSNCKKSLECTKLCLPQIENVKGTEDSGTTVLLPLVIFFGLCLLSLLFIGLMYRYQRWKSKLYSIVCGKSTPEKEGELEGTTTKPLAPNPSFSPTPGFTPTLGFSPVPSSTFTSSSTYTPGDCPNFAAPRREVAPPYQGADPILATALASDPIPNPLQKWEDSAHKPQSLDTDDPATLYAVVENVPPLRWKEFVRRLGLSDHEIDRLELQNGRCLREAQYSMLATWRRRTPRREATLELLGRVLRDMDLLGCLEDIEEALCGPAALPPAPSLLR
Put plainly: THP-1 Lucia NF-κB reporter cell assay, inhibition of TNFα-induced NF-κB signaling. Type of assay: cell-based. The conditions noted are these: THP-1 NF-κB Lucia reporter cells, 10 ng/mL TNFα, 16-18 h, secreted luciferase; read-out: THP-1 IC50. An outline of the steps: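 Inhibition of TNFR1-driven NF-κB activation was measured as luminescence of secreted reporter luciferase following overnight (16-18 h) stimulation with 10 ng/mL TNFα.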

The target in the next assay is T3, human TNFR2 ECD protein (Homo sapiens, UniProt P20333).
T3 construct: HRV 3C protease cleavage site (C); 6His (C, cleaved yes); made in house; host or cells: Sf21 insect cells (baculovirus), secreted
T3 sequence (P20333 23-257): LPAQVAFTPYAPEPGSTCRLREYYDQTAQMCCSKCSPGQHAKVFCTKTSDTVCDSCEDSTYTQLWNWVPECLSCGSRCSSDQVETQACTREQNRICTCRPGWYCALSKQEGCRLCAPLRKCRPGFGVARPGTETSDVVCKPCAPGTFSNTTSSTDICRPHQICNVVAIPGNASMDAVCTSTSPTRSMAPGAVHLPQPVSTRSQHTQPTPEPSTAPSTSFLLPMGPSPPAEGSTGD
Description: SPR off-target binding (selectivity) to human TNFR2 ECD. The protocol: as §1, §2, §3

In the case of `CCCC[C@@H]1NC(=O)[C@@H]2CC[C@@H](C2)NC(=O)[C@H]([C@@H](C)c2c[nH]c3c(OC)cccc23)NC(=O)CN(C)C(=O)[C@H](Cc2ccc(OCC(=O)O)cc2)NC(=O)[C@H](Cc2ccc(C(N)=O)cc2)NC(=O)[C@](C)(CO)NC(=O)[C@H](Cc2c[nH]c3c(Cl)cccc23)NC(=O)[C@H](Cc2ccc(OCC(=O)O)cc2)NC(=O)[C@H](CC(N)=O)NC(=O)[C@H]2C[C@H](O)CN2C(=O)[C@H](Cc2c[nH]c3ccccc23)NC(=O)[C@@H]2CC[C@@H](O)CN2C(=O)[C@H](Cc2ccncc2)NC1=O` [SEQ ID NO. 3] (cyclo([4Pal][Pip(5R-OH)]W[dHyp]NY(Carboxymethyl)[Trp(7-Cl)][αMeS][Phe(4-CONH2)]Y(Carboxymethyl)[Sar][Trp(βS-Me,7-OMe)][X1][Nle])), the figures for the Kd (in assay [1]; at human TNFR2 ECD protein) were 0.04 nM and > 1000 nM, respectively. In addition, the IC50 – broadly, the concentration that gives 50% inhibition – in assay [2] stood at 0.5 nM.
On to `CCCC[C@@H]1NC(=O)[C@@H]2CC[C@@H](C2)NC(=O)[C@H]([C@@H](C)c2c[nH]c3c(OC)cccc23)NC(=O)CN(C)C(=O)[C@H](Cc2ccc(O)cc2)NC(=O)[C@H](Cc2ccc(C(=O)O)cc2)NC(=O)[C@](C)(CO)NC(=O)[C@H](Cc2c[nH]c3c(Cl)cccc23)NC(=O)[C@H](Cc2ccncc2)NC(=O)[C@H](CC(N)=O)NC(=O)[C@H](CCC(=O)O)N(C)C(=O)[C@H](Cc2c[nH]c3ccccc23)NC(=O)[C@@H]2CNCCN2C(=O)[C@H](Cc2ccncc2)NC1=O` [SEQ ID NO. 5] (cyclo([4Pal][Trp(7-Cl)][αMeS][Phe(4-COOH)]Y[Sar][Trp(βS-Me,7-OMe)][X1][Nle][4Pal][Pip(4-aza)]W[NMeE]N)), for which the Kd – broadly, the concentration at which binding is half-saturated – in assay [1] (biotinylated human TNFR1 ECD on streptavidin chip, from kon and koff, read-out: SPR hTNFR1 KD) is 0.1 nM; at human TNFR2 ECD protein (biotinylated human TNFR2 ECD on streptavidin chip, read-out: SPR hTNFR2 KD), > 1000 nM. Moreover, the IC50 in assay [2] was 1.2 nM.
As to `CCCC[C@@H]1NC(=O)CSC[C@@H](C(N)=O)NC(=O)[C@H]([C@@H](C)c2c[nH]c3c(OC)cccc23)NC(=O)CN(C)C(=O)[C@H](Cc2ccc(O)cc2)NC(=O)[C@H](Cc2ccc(C(=O)O)cc2)NC(=O)[C@](C)(CO)NC(=O)[C@H](Cc2c[nH]c3c(Cl)cccc23)NC(=O)[C@H](Cc2ccncc2)NC(=O)[C@H](CC(N)=O)NC(=O)[C@H](CCC(=O)O)N(C)C(=O)[C@H](Cc2c[nH]c3ncccc23)NC(=O)[C@@H]2CNCCN2C(=O)[C@H](CC23CC(C2)C3)NC1=O` [SEQ ID NO. 33] ({CH2CO}-[Nle][Ala(1-bicyclo(1.1.1)pentyl)][Pip(4-aza)][Trp(7-aza)][NMeE]N[4Pal][Trp(7-Cl)][αMeS][Phe(4-COOH)]Y[Sar][Trp(βS-Me,7-OMe)]C-NH2; thioether N-14), the Kd in assay [1] was 0.3 nM; on human TNFR2 ECD protein it was > 1000 nM. Moreover, the half-maximal inhibitory concentration (IC50) in assay [2] is 6.8 nM.
The like results for `COc1cccc2c([C@H](C)[C@@H]3NC(=O)CN(C)C(=O)[C@H](Cc4ccc(O)cc4)NC(=O)[C@H](Cc4ccc(C(=O)O)cc4)NC(=O)[C@](C)(CO)NC(=O)[C@H](Cc4c[nH]c5c(Cl)cccc45)NC(=O)[C@H](Cc4ccncc4)NC(=O)[C@H](CC(N)=O)NC(=O)[C@H](CCC(=O)O)N(C)C(=O)[C@H](Cc4c[nH]c5ccccc45)NC(=O)[C@@H]4CNCCN4C(=O)[C@H](Cc4ccncc4)NC(=O)[C@H](CCCCNC(=N)N)NC(=O)[C@@H]4CC[C@@H](C4)NC3=O)c[nH]c12` [SEQ ID NO. 35] (cyclo([4Pal][Trp(7-Cl)][αMeS][Phe(4-COOH)]Y[Sar][Trp(βS-Me,7-OMe)][X1][hArg][4Pal][Pip(4-aza)]W[NMeE]N)) were, in that order, 0.11 nM, > 1000 nM and 1 nM.
In the case of `CCCC[C@@H]1NC(=O)CSC[C@@H](C(N)=O)NC(=O)[C@H]([C@@H](C)c2c[nH]c3c(OC)cccc23)NC(=O)CN(C)C(=O)[C@H](Cc2ccc(O)cc2)NC(=O)[C@H](Cc2ccc(C(N)=O)cc2)NC(=O)[C@](C)(CO)NC(=O)[C@H](Cc2c[nH]c3c(Br)cccc23)NC(=O)[C@H](Cc2ccncc2)NC(=O)[C@H](CC(N)=O)NC(=O)[C@H](CCC(=O)O)N(C)C(=O)[C@H](Cc2c[nH]c3ccccc23)NC(=O)[C@@H]2CC[C@@H](O)CN2C(=O)[C@H](Cc2ccncc2)NC1=O` [SEQ ID NO. 39] ({CH2CO}-[Nle][4Pal][Pip(5R-OH)]W[NMeE]N[4Pal][Trp(7-Br)][αMeS][Phe(4-CONH2)]Y[Sar][Trp(βS-Me,7-OMe)]C-NH2; thioether N-14), the Kd in assay [1] was 0.05 nM; on human TNFR2 ECD protein, > 1000 nM. The IC50 in assay [2] amounted to 0.9 nM.
For `CCCC[C@@H]1NC(=O)[C@@H]2CC[C@@H](C2)NC(=O)[C@H]([C@@H](C)c2c[nH]c3c(OC)cccc23)NC(=O)CN(C)C(=O)[C@H](Cc2ccc(O)cc2)NC(=O)[C@H](Cc2ccc(C(=O)O)cc2)NC(=O)[C@](C)(CO)NC(=O)[C@H](Cc2c[nH]c3c(Cl)cccc23)NC(=O)[C@H](Cc2ccncc2)NC(=O)[C@H](CC(N)=O)NC(=O)CN(CCOC)C(=O)[C@H](Cc2c[nH]c3ccccc23)NC(=O)[C@@H]2CNCCN2C(=O)[C@H](Cc2ccncc2)NC1=O` [SEQ ID NO. 82] (cyclo([4Pal][Trp(7-Cl)][αMeS][Phe(4-COOH)]Y[Sar][Trp(βS-Me,7-OMe)][X1][Nle][4Pal][Pip(4-aza)]W[Nme]N)), the figures for the Kd (in assay [1]; on human TNFR2 ECD protein) were 0.07 nM and > 1000 nM, respectively.
The like results for `CCCC[C@@H]1NC(=O)CSC[C@@H](C(N)=O)NC(=O)[C@H]([C@@H](C)c2c[nH]c3c(OC)cccc23)NC(=O)CN(C)C(=O)[C@H](Cc2ccc(C(N)=O)cc2)NC(=O)[C@H](Cc2ccc(C(=O)O)cc2)NC(=O)[C@](C)(CO)NC(=O)[C@H](Cc2c[nH]c3c(Cl)cccc23)NC(=O)[C@H](Cc2ccncc2)NC(=O)[C@H](CC(N)=O)NC(=O)[C@H](CCC(=O)O)N(C)C(=O)[C@H](Cc2c[nH]c3ccccc23)NC(=O)[C@@H]2CNCCN2C(=O)[C@H](Cc2ccncc2)NC1=O` [SEQ ID NO. 124] ({CH2CO}-[Nle][4Pal][Pip(4-aza)]W[NMeE]N[4Pal][Trp(7-Cl)][αMeS][Phe(4-COOH)][Phe(4-CONH2)][Sar][Trp(βS-Me,7-OMe)]C-NH2; thioether N-14) were, in that order, 0.12 nM and > 1000 nM.
